Values joined by “and” are separate entries in the source; they are usually repeats but may differ in a detail not shown here. Identical values can stand only once. Like-named read-outs stand apart in the source and are kept apart here.
Experiments:
breast cancer MDA-MB-436 = assay: In-vivo pharmacodynamic study on subcutaneous xenograft tumor model of breast cancer MDA-MB-436; parameters: species or system NOD/SCID mice; details: 100 mg/kg orally once daily
Procedure: Strain: NOD/SCID; Grade: SPF; Source: Beijing Vitron River Bio-technology Co., Ltd.
The cells were washed 3 times with pre-cooled PBS, centrifuged at 300 g for 10 min, collected, re-suspended in PBS, and counted with a blood cell counting chamber, and the cell concentration was adjusted. After cell collection, the cell suspension was pre-cooled on ice. 100 µL of the cell suspension was administered via subcutaneous injection into the dorsal flank of the mice, and the grouped treatment was started when the tumor volume reached 200-300 mm^3.
General observation: Observation of animals: all live experimental animals to be observed; Observation time: twice a day; Observation items: including but not limited to general performance, behavioral status, eyes, mouth, nose and mouth, ears, hair, stool, urine, genitalia and other toxic symptoms; If abnormalities are observed, provide a detailed description.
Animal assay: all viable experimental animals scheduled for assay; Assay time: All animals were weighed before the modeling for test grouping. After modeling, the mice were weighed once every 2 days, and the weight change of the mice was recorded in real time. Effective criteria: tumor volume (TV), relative tumor volume (RTV) and relative tumor growth rate of subcutaneously implanted tumor model. […] The calculation formula of tumor volume (TV) was: TV (mm^3) = a×b2×0.5, where a and b were the long diameter and short diameter, respectively.
The evaluation index for anti-tumor activity was the relative tumor growth rate T/C (%), and the calculation formula was as follows: T/C(%) = TRTV/CRTV × 100%; [formula]
Where, TRTV is relative tumor volume of the treatment group; CRTV is relative tumor volume of the negative control group. Therapeutic evaluation criteria: T/C (%)> 60 is considered ineffective; T/C (%) ≤ 60, and P < 0.05 (through statistical analysis) is considered effective. Measurement of tumor weight and tumor inhibition rate (%): At the end of the treatment period, the animals were euthanize, tumor masses dissected and isolated, tumors weighed, and photographs took. The tumor inhibition rate (%) was calculated by the formula below: [formula]
All raw data within the facility were collected manually according to the experimental scheme and the relevant guidelines of the research institution, or gathered by using a data acquisition system. Manually collected data can be transcribed into software such as Excel for analysis and reporting. The data from each group were quantitative, and the experimental data for each group of animals in the tables were expressed as mean ± standard deviation (Mean ± SD). In the figures, the experimental data ware described as mean ± standard error of the mean (Mean ± SEM). Statistical analysis, including t-tests and survival analysis, was performed by using the software such as EXCEL and GraphPad Prism.
After 24 days of administration, the tumor-bearing mice were anesthetized and euthanized. The tumor tissues were dissected, weighed, and photographed, and the tumor inhibition rate was calculated.

[1] = system: BRCA wild-type DLD-1 cells; assay: Anti-proliferative activity assay of cell (CCK8), DLD-1; format: cell-based; details: Homo sapiens; BRCA wild-type DLD-1 cells, 72 h + 96 h, CCK8; read-out: DLD-1 IC50
[2] = Pharmacokinetic evaluation of compound in Balb/c mice; format: in vivo; details: 1 mg/kg, PO; for AUC(0-t) / Cmax / half-life: male, mouse, plasma
Procedure: Sample preparation: About 0.2 mg of the compound was dissolved in 10 µL DMSO, then a sodium chloride injection was added to make a 0.1 mg·mL^-1 solution of the compound for administration.
Three mice were administered the compound intravenously (IV) at a dose of 1 mg·kg^-1, and the other three were administered the compound orally (PO) at the same dose. […] The plasma concentration of the drug was quantitatively analyzed with the LC-MS/MS method, and pharmacokinetic parameters were calculated, including the […] (Cmax), area under the concentration-time curve (AUC(0-t)), half-life (T1/2), clearance (CL), volume of distribution at steady state (Vdss), and bioavailability (F).

PARP2 = target: T1, PARP2 (Homo sapiens, UniProt Q9UGN5); assay: Determination of PARP2 enzyme (histone-coated plate, Biotin-NAD+); format: biochemical; details: read-out: PARP-2 IC50
T1 construct: purchased BPS 80502
T1 sequence (Q9UGN5 whole entry): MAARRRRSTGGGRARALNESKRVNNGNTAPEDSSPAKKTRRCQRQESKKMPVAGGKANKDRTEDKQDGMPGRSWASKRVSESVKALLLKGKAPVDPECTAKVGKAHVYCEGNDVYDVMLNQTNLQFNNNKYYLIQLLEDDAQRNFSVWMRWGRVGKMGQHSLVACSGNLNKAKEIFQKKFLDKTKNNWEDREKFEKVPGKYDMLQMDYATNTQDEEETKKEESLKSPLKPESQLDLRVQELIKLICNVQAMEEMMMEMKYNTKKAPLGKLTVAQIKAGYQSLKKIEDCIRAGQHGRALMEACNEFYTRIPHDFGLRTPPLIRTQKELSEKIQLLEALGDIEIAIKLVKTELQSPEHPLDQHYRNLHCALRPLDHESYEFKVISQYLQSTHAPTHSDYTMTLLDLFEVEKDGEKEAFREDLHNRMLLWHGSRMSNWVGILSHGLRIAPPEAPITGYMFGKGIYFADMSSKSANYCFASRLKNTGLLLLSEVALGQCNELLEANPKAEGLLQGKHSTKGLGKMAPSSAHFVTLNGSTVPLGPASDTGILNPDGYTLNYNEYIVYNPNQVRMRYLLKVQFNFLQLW
Procedure: • 1.2.1 Preparation of buffer solution: PBST: 1x PBS, 0.05% Tween-20; blocking solution: 1x PBS, 0.05% Tween-20, 5% BSA; reaction buffer solution: 50 mM HEPES (pH 7.5), 0.002% Tween-20, 0.1% BSA, 100 mM NaCl, 2mM DTT. • 1.2.2 Coating: A 100 ng/mL Histone coating solution was prepared by using 1x PBS, 25 uL of the coating solution was transferred to a 384-well reaction plate, and the reaction plate was coated overnight at 4°C. • 1.2.3 Washing: After the coating was completed, the coating solution was discarded, and the reaction plate was washed with the PBST solution by means of transferring 50uL of the PBST solution to the 384-well reaction plate, letting it stand for 5 min, discarding the washing solution, refilling the reaction plate, and repeating the washing process 3 times. Finally, the reaction plate was tapped dry and the next step of blocking was proceeded with. • 1.2.4 Blocking: 50 uL of the blocking solution was transferred to the 384-well reaction plate and set for 1 h. • 1.2.5 Washing: After the blocking was completed, the blocking solution was discarded, the reaction plate was washed 3 times with the PBST solution according to the method in Step 2, and the reaction plate was tapped dry. • 1.2.6 A 25/10× PARP2 solution was prepared, then 10 µL of the PARP2 solution was transferred to the 384-well reaction plate.

PARP5A = target: T2, PARP5A (Homo sapiens, UniProt O95271); assay: Determination of PARP5A enzyme (histone-coated plate, Biotin-NAD+); format: biochemical
T2 construct: purchased BPS 80504
T2 sequence (O95271 1001-1327): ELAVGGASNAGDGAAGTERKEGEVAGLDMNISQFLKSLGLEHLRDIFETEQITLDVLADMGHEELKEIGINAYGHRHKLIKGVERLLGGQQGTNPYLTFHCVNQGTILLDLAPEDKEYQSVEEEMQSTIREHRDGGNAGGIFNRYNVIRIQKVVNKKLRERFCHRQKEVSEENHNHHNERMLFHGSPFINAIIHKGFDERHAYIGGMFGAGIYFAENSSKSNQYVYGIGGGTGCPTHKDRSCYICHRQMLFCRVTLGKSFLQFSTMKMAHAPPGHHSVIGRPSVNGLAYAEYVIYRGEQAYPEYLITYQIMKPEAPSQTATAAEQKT
Procedure: • 1.3.1 Preparation of buffer solution solution: PBST: 1x PBS, 0.05% Tween-20; blocking solution: 1x PBS, 0.05% Tween-20, 5% BSA; reaction buffer solution: 50 mM HEPES (pH 7.5), 0.002% Tween-20, 0.1% BSA, 100 mM NaCl, 2mM DTT. • 1.3.2 Coating: A 100 ng/mL Histone coating solution was prepared by using 1x PBS, 25 uL of the coating solution was transferred to a 384-well reaction plate, and the reaction plate was coated overnight at 4°C. • 1.3.3 Washing: After the coating was completed, the coating solution was discarded, and the reaction plate was washed with the PBST solution by means of transferring 50uL of the PBST solution to the 384-well reaction plate, letting it stand for 5 min, discarding the washing solution, refilling the reaction plate with the PBST solution, and repeating the washing process 3 times. Finally, the reaction plate was tapped dry and the next step of blocking was proceeded with. • 1.3.4 Blocking: 50 uL of the blocking solution was transferred to the 384-well reaction plate and set for 1 h. • 1.3.5 Washing: After the blocking was completed, the blocking solution was discarded, the reaction plate was washed 3 times with the PBST solution according to the method in Step 2, and the reaction plate was tapped dry. • 1.3.6 A 25/10× PARP5A solution was prepared, then 10 µL of the PARP5A solution was transferred to the 384-well reaction plate. For negative control wells, 10 µL of the reaction buffer solution instead was transferred, resulting in the final concentration of PARP5A of 10 nM. • 1.3.7 A 2,000x compound was prepared, 50 nL of the compound was transferred to with echo, 19.95 uL of the reaction buffer solution was added into the compound, mix well, and 5 uL of the mixed compound was transferred to the 384-well reaction plate. • 1.3.8 A 25/10x Biotin-NAD+ solution was prepared, 10uL of the Biotin-NAD+ solution was transferred to the 384-well reaction plate, resulting in a final Biotin-NAD+ concentration of 2uM, and incubated at room temperature for 60 min. • 1.3.9 Washing: After the reaction was completed, the reaction liquid was discarded. The reaction plate was washed 3 times with the PBST solution according to the method in Step 2, and the reaction plate was tapped dry. • 1.3.10 A Stre-HRP solution was prepared by means of diluting it with the blocking solution, 25uL of the Stre-HRP solution was transferred to the reaction plate, and incubated at room temperature for 1 h, resulting the final concentration of Stre-HRP of 0.1 µg/mL. • 1.3.11 Washing: The Stre-HRP solution was discarded, the reaction plate was washed 3 times with the PBST solution according to the method in Step 2, and the reaction plate was tapped dry. • 1.3.12 Color developing: Femto-ECL Substrate A, Femto-ECL Substrate B, and QuantaRed ADHP were mixed in a 50:50:1 ratio.

PARP1 = PARP1 (Homo sapiens, UniProt P09874); assay: Determination of PARP1 enzyme (histone-coated plate, chemiluminescence); format: biochemical
Sequence of PARP1 (P09874 whole entry): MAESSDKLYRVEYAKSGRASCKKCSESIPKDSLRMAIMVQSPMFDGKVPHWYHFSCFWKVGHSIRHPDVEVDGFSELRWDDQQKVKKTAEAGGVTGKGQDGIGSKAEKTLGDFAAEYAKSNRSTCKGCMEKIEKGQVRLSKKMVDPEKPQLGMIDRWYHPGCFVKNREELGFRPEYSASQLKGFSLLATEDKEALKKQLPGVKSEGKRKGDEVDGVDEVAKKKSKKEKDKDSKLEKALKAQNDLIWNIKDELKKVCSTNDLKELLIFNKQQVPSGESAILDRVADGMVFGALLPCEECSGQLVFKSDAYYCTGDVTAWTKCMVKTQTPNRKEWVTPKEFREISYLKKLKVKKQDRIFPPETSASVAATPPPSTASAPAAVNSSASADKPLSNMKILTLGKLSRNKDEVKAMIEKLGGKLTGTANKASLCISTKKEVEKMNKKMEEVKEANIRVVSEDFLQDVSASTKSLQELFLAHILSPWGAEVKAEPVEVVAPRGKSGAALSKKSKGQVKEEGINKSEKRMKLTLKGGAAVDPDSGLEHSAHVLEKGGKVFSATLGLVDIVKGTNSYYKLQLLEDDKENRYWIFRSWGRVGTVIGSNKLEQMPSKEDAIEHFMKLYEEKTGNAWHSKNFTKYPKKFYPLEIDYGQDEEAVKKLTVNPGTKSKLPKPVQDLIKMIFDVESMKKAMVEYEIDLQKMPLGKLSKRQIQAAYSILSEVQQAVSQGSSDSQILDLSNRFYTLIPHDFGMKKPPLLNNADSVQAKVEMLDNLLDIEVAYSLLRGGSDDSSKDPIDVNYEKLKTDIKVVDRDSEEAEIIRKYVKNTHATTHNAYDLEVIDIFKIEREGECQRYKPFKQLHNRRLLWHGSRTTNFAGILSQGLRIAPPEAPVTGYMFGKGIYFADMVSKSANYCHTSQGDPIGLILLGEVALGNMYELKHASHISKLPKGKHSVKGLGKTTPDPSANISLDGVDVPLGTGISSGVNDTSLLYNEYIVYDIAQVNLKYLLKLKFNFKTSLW

| Compound | IC50 [1] [µM] | Vdss [2] [L/kg] | AUC(0-t) [2] [ng·h/mL] | Cmax [2] [ng/mL] | half-life [2] [h] | IC50 (PARP2) [µM] | IC50 (PARP5A; read-out: PARP-5a IC50) [µM] | also measured |
| --- | --- | --- | --- | --- | --- | --- | --- | --- |
| O=C(c1cc(Cc2n[nH]c(=O)c3ccccc23)ccc1F)N1CCN(C(=O)C2CC2)CC1 [Olaparib, reference compound] | – | – | – | – | – | – | – | RTV (breast cancer MDA-MB-436; 24 days): 2.2; Tumor inhibition rate (%) (breast cancer MDA-MB-436; 24 days): 62.19%; Tumor volume T/C% (breast cancer MDA-MB-436; 24 days): 33.4%; Tumor weight (g) X±SD (breast cancer MDA-MB-436; 24 days): 0.82 ± 0.39 g; Body weight (g) X±SD End (breast cancer MDA-MB-436; End, 24 days): 21.7 ± 1.4 g; Tumor volume (mm^3) X±SD End (breast cancer MDA-MB-436; End, 24 days): 551.5±343.1 mm^3; Body weight (g) X±SD Start (breast cancer MDA-MB-436; Start): 21.9 ± 1.1 g; Tumor volume (mm^3) X±SD Start (breast cancer MDA-MB-436; Start): 250.7±70.0 mm^3 |
| [2H]C([2H])([2H])NC(=O)c1ccc(C2=CCN(Cc3ccc4nc(CC)c(=O)[nH]c4c3F)CC2)cn1 [Compound 4, 1'-((2-Ethyl-5-fluoro-3-oxo-3,4-dihydroquinoxalin-6-yl)methyl)-N-(methyl-d3)-1',2',3',6'-tetra hydro-[3,4'-bipyridine]-6-carboxamide] | > 10 | 0.14 | 122000 | 7370 | 11.5 | – | – | CL [2]: 0.17 mL/min/kg |
| [2H]C([2H])([2H])NC(=O)c1ccc(C2=CCN(Cc3cnc4cc(CC)c(=O)[nH]c4c3)CC2)c(F)n1 [Compound 10, 1'-((7-ethyl-6-oxo-5,6-dihydro-1,5-naphthyridin-3-yl)methyl)-2-fluoro-N-(methyl-d3)-1',2',3', 6'-tetrahydro-[3,4'-bipyridine]-6-carboxamide] | > 10 | 0.15 | 44600 | 3840 | 4.64 | – | – | – |
| [2H]C([2H])([2H])C([2H])([2H])c1nc2ccc(CN3CC=C(c4ccc(C(=O)NC)nc4)CC3)c(F)c2[nH]c1=O [Compound 13, 1'-((2-(ethyl-d5)-5-fluoro-3-oxo-3,4-dihydroquinoxalin-6-yl)methyl)-N-methyl-1',2',3',6'-tetra hydro-[3,4'-bipyridine]-6-carboxamide] | > 10 | – | – | – | – | > 1 | – | IC50 (PARP5A): > 1 µM; PARP-1 inhibition ratio (PARP1): 96.1% and 98.5% |
| [2H]C([2H])([2H])C([2H])([2H])c1cc2ncc(CN3CC=C(c4ccc(C(=O)NC5CC5)nc4)CC3)cc2[nH]c1=O [Compound 12, N-cyclopropyl-1'-((7-(ethyl-d5)-6-oxo-5,6-dihydro-1,5-naphthyridin-3-yl)methyl)-1',2',3',6'-tet rahydro-[3,4'-bipyridine]-6-carboxamide] | > 10 | 0.70 | 6950 | 2290 | 3.87 | > 1 | > 1 | PARP-1 inhibition ratio (PARP1): 99.8% and 99.9%; CL [2]: 2.5 mL/min/kg |
| [2H]C([2H])([2H])C([2H])([2H])c1nc2ccc(CN3CC=C(c4ccc(C(=O)NC)nc4F)CC3)c(F)c2[nH]c1=O [Compound 14, 1'-((2-(ethyl-d5)-5-fluoro-3-oxo-3,4-dihydroquinoxalin-6-yl)methyl)-2-fluoro-N-methyl-1',2',3 '6'-tetrahydro-[3,4'-bipyridine]-6-carboxamide] | > 10 | – | – | – | – | > 1 | > 1 | PARP-1 inhibition ratio (PARP1; 10 nM): 98.9%; PARP-1 inhibition ratio (PARP1; 100 nM): 99.1% |
| [2H]C([2H])([2H])NC(=O)c1ccc(C2=CCN(Cc3cnc4cc(C([2H])([2H])C([2H])([2H])[2H])c(=O)[nH]c4c3)CC2)cn1 [Compound 11, 1'-((7-(ethyl-d5)-6-oxo-5,6-dihydro-1,5-naphthyridin-3-yl)methyl)-N (methyl-d3)-1',2',3',6'-tet rahydro-[3,4'-bipyridine]-6-carboxamide] | – | – | – | – | – | > 1 | > 1 | – |
| [2H]C([2H])([2H])Cc1cc2ncc(CN3CC=C(c4ccc(C(=O)NC)nc4)CC3)cc2[nH]c1=O [Compound 16, 1'-((7-(ethyl-2,2,2-d3)-6-oxo-5,6-dihydro-1,5-naphthyridin-3-yl)methyl)-N-methyl-1',2',3',6'-t etrahydro-[3,4'-bipyridine]-6-carboxamide] | – | – | – | – | – | > 1 | > 1 | – |
| [2H]C([2H])([2H])NC(=O)c1ccc(C2=CCN(Cc3cnc4cc(CC)c(=O)[nH]c4c3)CC2)c(C)n1 [Compound 8, 1'-((7-ethyl-6-oxo-5,6-dihydro-1,5-naphthyridin-3-yl)methyl)-2-methyl-N-(methyl-d3)-1',2',3', 6'-tetrahydro-[3,4'-bipyridine]-6-carboxamide] | – | 0.14 | 42300 | 5010 | 4.1 | – | – | – |

Reference: EP4606801A1, “FUSED HETEROCYCLIC COMPOUND AND USE THEREOF” (Chengdu Zenitar Biomedical Technology Co., Ltd., priority 2022, dated 2024)
